Data taken from US6261826A, “Antibiotic TKR2648 and process for producing the same” (Takara Shuzo Co., Ltd., priority 1996, dated 2001).
Values after ≈ are worked out from the molar mass of the structure shown. “Also recorded” adds a separate entry of the source.

Tests used:
B16 melanoma cells [1] = experiment: Cytotoxicity to B16 melanoma cells, alamarblue-method; type: cell-based
Procedure: (§1) Effect of the above TKR2648 on tumor cells was examined by measuring inhibitory activity of the metastatic ability of tumor cells, which were inoculated into animals after incubation with TKR2648 for several hours. EL-4 lymphoma or B16 melanoma cells were cultured in RPMI 1640 medium containing 10% of fetal calf serum, and various concentrations of TKR2648 were added to the culture of tumor cells. After overnight culture, cytotoxicity of TKR2648 to the cells was determined by alamarblue-method (Biosource International), and the cells treated with TKR2648 were recovered and injected to C57BL/6 (female) mice via tail vein. Ten days after the injection of EL-4, the mice were sacrified and their livers were obtained and weighed to determine metastasizing tumor cells as increase of weight. Fourteen days after the injection of B16 cells, the mice were scarified and their lungs were obtained and counted metastasizing melanoma colonies. […] This means that TKR2648 may be useful as an anticancer agent by inhibiting metastasis properties of tumor cells without affecting of proliferative properties of tumor cells.

EL-4 lymphoma cells [2] = experiment: Cytotoxicity to EL-4 lymphoma cells, alamarblue-method; type: cell-based
Procedure: as §1

ICR mice = experiment: Toxicity, intraperitoneal administration to mice; type: in vivo; details: 50 mg/kg
[3] = system: Candida albicans TIMM0136; experiment: Minimal inhibitory concentration, liquid medium dilution method; type: cell-based
Procedure: (§2) The antifungal spectra of the above TKR2648 against various microorganisms were determined. Using the liquid medium dilution method, the concentration causing a substantially complete inhibition of fungal growth was determined as minimal inhibitory concentration (μg/ml). In the table, YNBG stands for a medium comprising 0.67% of yeast nitrogen base (manufactured by Difco) and 1.0% of glucose, and BHI stands for a medium comprising 0.5% of brain-heart infusion bouillon (manufactured by Nihon Pharmaceutical).

Candida kefyr TIMM0301 = experiment: as above; type: cell-based
Procedure: as §2

[4] = system: Cryptococcus neoformans TIMM0354; experiment: as above; type: cell-based
Procedure: as §2

[5] = system: Aspergillus fumigatus TIMM1776; experiment: as above; type: cell-based
Procedure: as §2

B16 melanoma cells [6] = experiment: Inhibition of metastasis of treated B16 cells injected into mice (lung colonies); type: in vivo, C57BL/6 (female) mice; details: for Inhibition of metastasis / Colony number of melanoma mean ± SD: fourteen days after injection; for Colony number of melanoma mean ± SD: lungs
Procedure: as §1

Solubility = type: physicochemical
EL-4 lymphoma cells [7] = experiment: Inhibition of metastasis of treated EL-4 cells injected into mice (liver weight); type: in vivo, C57BL/6 (female) mice; details: for Inhibition of metastasis / Increase of liver weight mean ± SD: ten days after injection; for Increase of liver weight mean ± SD: * p<0.001
Procedure: as §1

[8] = in words, at concentrations inhibiting metastasis
[9] = B16 cells treated at 0.156 μg/ml
[10] = B16 cells treated at 0.625 μg/ml
[11] = in words, at the concentrations showing little cytotoxicity
[12] = EL4 cells treated at 0.156 μg/ml
[13] = EL4 cells treated at 0.313 μg/ml
[14] = EL4 cells treated at 0.625 μg/ml

CCCCC(=O)OC1CC(OC)=CC(=O)O1 (centres unmarked) [TKR2648]
cytotoxicity at 0.156 µg/mL (B16 melanoma cells [1]; Mus musculus, B16, 0.156 μg/ml, overnight culture): 4.5% | cytotoxicity at 0.625 µg/mL (B16 melanoma cells [1]; Mus musculus, B16, 0.625 μg/ml, overnight culture): 14.1% | cytotoxicity at 2.5 µg/mL (B16 melanoma cells [1]; Mus musculus, B16, 2.5 μg/ml, overnight culture): 51.3% | Cytotoxicity (B16 melanoma cells [1]; [8]): little cytotoxicity | cytotoxicity at 0.156 µg/mL (EL-4 lymphoma cells [2]; Mus musculus, EL4, 0.156 μg/ml, overnight culture): 4.5% | cytotoxicity at 0.313 µg/mL (EL-4 lymphoma cells [2]; Mus musculus, EL4, 0.313 μg/ml, overnight culture): 15.7% | cytotoxicity at 0.625 µg/mL (EL-4 lymphoma cells [2]; Mus musculus, EL4, 0.625 μg/ml, overnight culture): 35.1% | Cytotoxicity (EL-4 lymphoma cells [2]; [8]): little cytotoxicity | Toxic signs (ICR mice): no toxic signs | MIC ([3]; Candida albicans, TIMM0136, YNBG medium): 100 µg/mL (≈ 438 µM) | Antifungal activity ([3]; in words): active | MIC (Candida kefyr TIMM0301; Kluyveromyces marxianus, TIMM0301, YNBG medium): 50 µg/mL (≈ 219 µM) | Antifungal activity (Candida kefyr TIMM0301; in words): active | MIC ([4]; Cryptococcus neoformans, TIMM0354, YNBG medium): 3.13 µg/mL (≈ 13.7 µM) | Antifungal activity ([4]; in words): active | MIC ([5]; Aspergillus fumigatus, TIMM1776, BHI medium): 6.25 µg/mL (≈ 27.4 µM) | Antifungal activity ([5]; in words): active | Inhibition of metastasis (B16 melanoma cells [6]; [9]): 9.6% | Colony number of melanoma mean ± SD (B16 melanoma cells [6]; [9]): 58.3 ± 16.3 | Inhibition of metastasis (B16 melanoma cells [6]; [10]): 29.7% | Colony number of melanoma mean ± SD (B16 melanoma cells [6]; [10]): 45.3 ± 3.8 | Inhibition of metastasis (B16 melanoma cells [6]; B16 cells treated at 2.5 μg/ml): 96.4% | Colony number of melanoma mean ± SD (B16 melanoma cells [6]; B16 cells treated at 2.5 μg/ml, * p<0.001): 2.3 ± 2.3 | Metastasis of B16 tumor cells to normal tissues (B16 melanoma cells [6]; [11]): inhibited metastasis | Solubility (Solubility; in chloroform): Soluble | Solubility (Solubility; in hexane): practically insoluble; also recorded: sparingly soluble | Solubility (Solubility; in methanol): Soluble | Solubility (Solubility; in water): practically insoluble; also recorded: sparingly soluble | Inhibition of metastasis (EL-4 lymphoma cells [7]; [12]): 47.4% | Increase of liver weight mean ± SD (EL-4 lymphoma cells [7]; [12]): 0.630 ± 0.107 g | Inhibition of metastasis (EL-4 lymphoma cells [7]; [13]): 67.4% | Increase of liver weight mean ± SD (EL-4 lymphoma cells [7]; [13]): 0.391 ± 0.148 g | Inhibition of metastasis (EL-4 lymphoma cells [7]; [14]): 89.3% | Increase of liver weight mean ± SD (EL-4 lymphoma cells [7]; [14]): 0.128 ± 0.043 g | Metastasis of EL-4 tumor cells to normal tissues (EL-4 lymphoma cells [7]; [11]): inhibited metastasis
